Laboratory results reported in patent publication US5851556A, “Use of a salt of an alkaline-earth metal as TNF-A or substance P inhibitor in a topical composition and composition obtained” (Societe L'Oreal S.A., priority 1995, dated 1998).

Tests used:
[1] = tested on: TNF-alpha; test: TNF-alpha secretion by human monocytes (U937 line) stimulated by phorbol ester (PMA); assay type: cell-based; settings: U937, PMA 10 nM, 48 hours; for % inhibition of TNF-alpha secretion induced by PMA: mean of 3 measurements
Protocol: This test is performed on human monocytes (U937 line) stimulated by a phorbol ester (PMA) according to the method described by Schindler et al (Correlations and interactions in the production of interleukin-6 (IL-6), IL-1, and Tumor Necrosis Factor (TNF) in human blood mononuclear cells: IL-6 suppresses IL-1 and TNF. Blood 75: 40-47 (1990)).
The phorbol ester (PMA) naturally stimulates the synthesis and/or the secretion of TNF-alpha by human monocytes in culture.
The activity of the molecules is evaluated according to their ability to reduce or even eliminate this TNF-alpha secretion.
The cells (monocytes) are incubated in the presence of PMA at the concentration of 10 nM for 48 hours at 37° C. The quantities of TNF-alpha secreted are quantified by immuno-enzymatic assay ([…]) with the aid of commercially available kits.
Each molecule is tested at 3 different concentrations (10^-5, 10^-4 and 10^-3 M) and during each experiment, a reference molecule (dexamethasone) is studied at 7 concentrations as internal standard.
The results are expressed as percentage inhibition relative to the positive control (without test molecule) after subtracting the background noise. A recapitulative Table 3 groups together the mean inhibitory effects obtained with the compounds. (The results expressed in % inhibition; they are the mean of 3 measurements).

[2] = tested on: substance P; test: release of substance P caused by antidromic stimulation of the sciatic nerve, visualized with Evans blue; assay type: in vivo; settings: for % inhibition relative to the control / μg/ml of Evans blue: 1 μmol; for μg/ml of Evans blue: control vehicle 8.19 ± 0.83
Text: The test consisted in determining the activity of the various compounds on the release of substance P, caused by antidromic stimulation of the sciatic nerve. This release is visualized by staining with a dye (Evans blue). The greater the quantity of substance P released, the more intense the colour. In other words, the greater the inhibitory effect produced on this release by the substance P antagonist, the less intense the colour.

O=[N+]([O-])[O-].O=[N+]([O-])[O-].[Sr+2] [Sr(NO3)2, strontium nitrate]
% inhibition of TNF-alpha secretion induced by PMA ([1]; 10^-3 M): 75% | % inhibition of TNF-alpha secretion induced by PMA ([1]; 10^-4 M): 28% | % inhibition relative to the control ([2]; Table 1): 41% | μg/ml of Evans blue ([2]; Table 1): 4.84 ± 0.6 µg/mL | % inhibition relative to the control ([2]; Table 2): 71%

C[C@@H]1C[C@H]2[C@@H]3CCC4=CC(=O)C=C[C@]4(C)[C@@]3(F)[C@@H](O)C[C@]2(C)[C@@]1(O)C(=O)CO [dexamethasone, reference compound]
IC50 ([1]; Homo sapiens, U-937, read-out: IC50 (50% reduction in the secretion, caused by PMA), reference molecule, 7 concentrations): 4 nM

[Ca+2].[Cl-].[Cl-] [CaCl2,7H2 O, calcium chloride]
% inhibition of TNF-alpha secretion induced by PMA ([1]; 10^-3 M): 67% | % inhibition of TNF-alpha secretion induced by PMA ([1]; 10^-4 M): 22% | % inhibition of TNF-alpha secretion induced by PMA ([1]; 10^-5 M): 19%

[Cl-].[Cl-].[Sr+2] [SrCl2 7H2 O, strontium chloride]
% inhibition of TNF-alpha secretion induced by PMA ([1]; 10^-3 M): 54% | % inhibition of TNF-alpha secretion induced by PMA ([1]; 10^-5 M): 14%

O=[N+]([O-])[O-].O=[N+]([O-])[O-].[Ca+2] [Ca(NO3)2, calcium nitrate]
inhibitory activity on the release of substance P ([2]; Table 1, salts at 1 μmol): does not have any activity at all | inhibitory activity on the release of substance P ([2]; Table 2, strontium salts 1 μmol, calcium salt 10 μmol): has no activity at all

[Cl-].[Cl-].[Sr+2] [SrCl2, strontium chloride]
% inhibition relative to the control ([2]; Table 1): 37% | μg/ml of Evans blue ([2]; Table 1): 5.13 ± 0.9 µg/mL | % inhibition relative to the control ([2]; Table 2): 57%

[Cl-].[Cl-].[Mg+2] [MgCl2, magnesium chloride]
% inhibition of TNF-alpha secretion induced by PMA ([1]; 10^-3 M): 70% | % inhibition of TNF-alpha secretion induced by PMA ([1]; 10^-4 M): 12%
